Key:
mouse ENT-1 transporter = target: T1, mouse ENT-1 transporter (Mus musculus, UniProt Q9JIM1); experiment: Measure of adenosine transport activity (ENT1 adenosine uptake inhibition); type: cell-based; conditions: stable cells expressing mouse ENT-1, [2,8-3H]-adenosine 6 nM, 20 min
T1 construct: expressed in transfected cells
T1 sequence (Q9JIM1 1-460): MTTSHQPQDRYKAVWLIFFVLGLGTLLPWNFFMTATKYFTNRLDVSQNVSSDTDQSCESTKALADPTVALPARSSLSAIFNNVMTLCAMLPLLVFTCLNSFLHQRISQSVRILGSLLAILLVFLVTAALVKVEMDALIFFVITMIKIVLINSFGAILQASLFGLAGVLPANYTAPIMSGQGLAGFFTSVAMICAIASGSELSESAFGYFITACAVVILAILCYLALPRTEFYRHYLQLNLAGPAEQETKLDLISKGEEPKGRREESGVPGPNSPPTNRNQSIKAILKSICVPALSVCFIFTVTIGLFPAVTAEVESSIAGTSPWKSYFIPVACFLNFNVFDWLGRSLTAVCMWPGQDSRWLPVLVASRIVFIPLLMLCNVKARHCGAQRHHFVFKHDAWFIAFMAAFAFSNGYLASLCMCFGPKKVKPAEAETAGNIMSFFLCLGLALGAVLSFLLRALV
How it was run: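 Stable mouse ENT-1 cells, 60,000/well, washed into pH 7.4 Hepes-Tris uptake buffer and incubated at RT with compound (1% DMSO final) for 20 min with shaking. Non-specific uptake defined with 10 μM NBTI; cell-associated radioactivity counted by scintillation after ice-cold washes.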

mice = experiment: SmartCube behavioral signature similarity analysis; type: in vivo, mouse; design: key to discrimination rate vs Clozapine (similarity analysis) / discrimination rate vs Olanzapine (similarity analysis) / discrimination rate vs Risperidone (similarity analysis): fraction; 0.5 = zero distinguishability between the two drugs; conditions: for discrimination rate vs Clozapine (similarity analysis) / discrimination rate vs Olanzapine (similarity analysis) / discrimination rate vs Risperidone (similarity analysis): 5 mg/kg i.p., SmartCube, rate of 0.70 or lower = similar
Text: In addition to the reversal of L-687,414 induced hyperlocomotion experiment as described above, some compounds of the present invention have been tested in SmartCube®, an automated system in which the behaviors of compound-treated mice in response to multiple challenges are captured by digital video and analyzed with computer algorithms (Roberds et al., Frontiers in Neuroscience, 2011, Vol. 5, Art. 103, 1-4; Vadim Alexandrov, Dani Brunner, Taleen Hanania, Emer Leahy Eur. J. Pharmacol. 2015, 750, 82-99). In this way, the neuro-pharmacological effects of a test compound can be predicted by similarity to major classes of compounds, such as antipsychotics, anxiolytics and antidepressants.
As mentioned above, some compounds have been tested in SmartCube©, an analytical system developed by PsychoGenics Inc.
SmartCube® was used to compare the behavioral signature of a test compound to a database of behavioral signatures obtained from a large set of clinically approved reference drugs, grouped per indications. In this way, the neuro-pharmacological effects of a test compound can be predicted by similarity to major classes of compounds, such as antipsychotics, anxiolytics and antidepressants. This approach is ideally suited to screen collections of existing drugs or drug candidates with previously unknown neuropharmacology, which could expedite the development of new and unexpected treatments for psychiatric disorders.
Some compounds of the present invention were injected i.p. at different doses 15 minutes before the test. At least 8 mice were used in each treatment group. Digital videos of the subjects were processed with computer vision algorithms to extract over 2000 dependent measures including frequency and duration of many different behavioral states. The results of the classifications are presented as bar charts for each compound and dose (mg/kg), the Y-axis indicates the relative probability that the test compound will show efficacy in the specific CNS indication.
For comparison, the behavioral signatures of the atypical antipsychotics clozapine, olanzapine and risperidone are shown in FIG. 2. Compounds of the present invention show similar signatures to those of atypical antipsychotics. An independent analysis was performed on the unclassified data to determine the similarity of the example compounds to active doses of known atypical antipsychotics. For this analysis, we use discrimination rate as the measure of separability between the two drugs, i.e. one drug's “distinguishability” from another. A rate equal to 50% (or 0.5) corresponds to zero distinguishability. […] In most cases, the example compounds show a similarity to risperidone, clozapine and olanzapine with a discrimination rate of <0.70.

[1] = system: L-687,414-induced hyperlocomotion; experiment: L-687,414-induced hyperlocomotion; type: in vivo, mouse; conditions: Mus musculus; Dose ip 30 mg/kg, mice, 50 mg/kg s.c. L-687,414
Description: The described compounds of formula I reduce L-687,414-induced hyperlocomotion. This was assessed by using a computerized Digiscan 16 Animal Activity Monitoring System (Omnitech Electronics, Columbus, Ohio) to quantify locomotor activity. Animals were kept under a 12 h light/dark cycle and experiments were performed during the light period. Each activity monitoring chamber consisted of a Plexiglas box (41×41×28 cm; W×L×H) with sawdust bedding on the floor surrounded by invisible horizontal and vertical infrared sensor beams. The test boxes were divided by a Plexiglas cross providing each mouse with 20×20 cm of moving space. Cages were connected to a Digiscan Analyzer linked to a computer that constantly collected the beam status information. Records of photocell beam interruptions for individual animals were taken every 5 min over the duration of the experimental session and the sum of the first 6 periods was used as the final parameter. At least 8 mice were used in each treatment group. Compounds were administered either p.o. 15 min before a s.c. injection of 50 mg/kg of L-687,414, or i.p. at the same time as a s.c. injection of 50 mg/kg of L-687,414. Mice were then transferred from their home cage to the recording chambers for a 15-min habituation phase allowing free exploration of the new environment. Horizontal activity was then recorded for a 30-min time period. The % inhibition of L-687,414-induced hyperlocomotion was calculated according to the equation:
((Veh+L-687,414 horizontal activity−drug+L-687,414 horizontal activity)/Veh+L-687,414 horizontal activity)×100
ID50 values, defined as doses of each compound producing 50% inhibition of L-687,414-induced hyperlocomotion, were calculated by linear regression analysis of a dose-response data using an Excel-based computer-fitting program.
As data was not presupposed to be normally distributed, groups treated with test compounds were statistically compared with the control (vehicle-treated) group using one-tailed Mann Whitney U tests. In statistics, the Mann-Whitney U test (also called the Mann-Whitney-Wilcoxon (MWW) or Wilcoxon rank-sum test) is a non-parametric statistical hypothesis test for assessing whether one of two samples of independent observations tends to have larger values than the other. It is one of the most well-known non-parametric significance tests. […] P values given in table 1 are one-tailed since only decreases in locomotion were expected and tested for (Mann, H. B., Whitney, D. R. (1947), “On a Test of Whether one of Two Random Variables is Stochastically Larger than the Other”, Annals of Mathematical Statistics, 18 (1), 50-60).

Compound	IC50 (mouse ENT-1 transporter)	SmartCube similarity to major drug classes (mice)	discrimination rate vs Clozapine (similarity analysis) (mice)	discrimination rate vs Olanzapine (similarity analysis) (mice)	discrimination rate vs Risperidone (similarity analysis) (mice)	inhibition in vivo at 30 mg/kg [1]
Cc1cnc(N2C(=O)C(C)(C)c3ccc(-c4cnc(C)nc4)cc32)nc1 [Example 53, 3,3-Dimethyl-1-(5-methylpyrimidin-2-yl)-6-(2-methylpyrimidin-5-yl)indolin-2-one]	1520 nM	similarity to atypical antipsychotics	0.59	0.61	0.62	–
Cc1cc(N2C(=O)C(C)(C)c3ccc(-c4cnc(C)nc4)cc32)c(F)cn1 [Example 25, 1-(5-Fluoro-2-methylpyridin-4-yl)-3,3-dimethyl-6-(2-methylpyrimidin-5-yl)indolin-2-one]	–	similarity to atypical antipsychotics	0.61	0.62	0.74	–
Cc1ncc(-c2ccc3c(c2)N(c2cnc(C)nc2)C(=O)C3(C)C)cn1 [Example 9, 3,3-Dimethyl-1,6-bis(2-methylpyrimidin-5-yl)indolin-2-one]	174 nM	similarity to atypical antipsychotics	0.65	0.66	0.69	93.2%
Cc1ccc(N2C(=O)C(C)(C)c3ccc(-c4cnc(C)nc4)cc32)nn1 [Example 48, 3,3-Dimethyl-1-(6-methylpyridazin-3-yl)-6-(2-methylpyrimidin-5-yl)indolin-2-one]	55 nM	similarity to atypical antipsychotics	0.58	0.61	0.67	–

— patent US20230391778A1, “INDOLIN-2-ONE OR PYRROLO -PYRIDIN -2 -ONE DERIVATIVES” (Hoffmann-La Roche Inc., priority 2014, published 2023)
